By IC50 is commonly meant the point on the concentration scale where inhibition reaches its midpoint. A low value points to inhibition by little substance.

We go through 6 compounds from ChEMBL document CHEMBL1146474, “Design, synthesis, and bioactivities of steroid-linked taxol analogues as potential targeted drugs for prostate and breast cancer” (J Nat Prod, 2004).

Assay [1] relates to PC-3. Briefly: cells. Particulars: Homo sapiens, PC-3, 48 h.
The nature of assay [2]: Induction of tubulin assembly at 0.2 uM relative to taxol.
The subject of assay [3] is MDA-MB-231. The assay can be described thus: cells. Particulars: Homo sapiens, MDA-MB-231, 48 h.
Assay [4] concerns A2780. The assay can be described thus: cells. Particulars: Homo sapiens, A2780, 48 h.
Assay [5] relates to MCF7. Briefly: cells. Particulars: Homo sapiens, MCF7, 48 h.
Assay [6] can be described thus: Induction of tubulin assembly at 1 uM relative to taxol.
For assay [7], the system named is MCF7. Briefly: Antiproliferative activity against human MCF7 cells assessed as reduction of cell survival after 7 days by MTS method. The class given is functional. In general terms: Tetrazolium assays rely on reduction of a dye to a coloured formazan, in cell work by metabolically active cells.
In assay [8] the test system is MDA-MB-231. Briefly: Antiproliferative activity against human MDA-MB-231 cells assessed as inhibition of cell survival after 48 hrs by MTS method. The assay is classed as functional.
Assay [9] has as its system MCF7. Briefly: Antiproliferative activity against human MCF7 cells assessed as reduction of cell survival after 48 hrs by MTS method. The assay is classed as functional.

As to `CC(=O)O[C@H]1C(=O)[C@]2(C)[C@@H](OC(=O)/C=C/C[C@@H]3C[C@H]4[C@@H]5CCc6cc(O)ccc6[C@H]5CC[C@]4(C)[C@H]3O)C[C@H]3OC[C@@]3(OC(C)=O)[C@H]2[C@H](OC(=O)c2ccccc2)[C@]2(O)C[C@H](OC(=O)[C@H](O)[C@@H](NC(=O)c3ccccc3)c3ccccc3)C(C)=C1C2(C)C`, the IC50 in [1] worked out at 0.12 µM; in assay [3] it was 2.2 µM; in [4], 8.3 µM; in [5], 1.6 µM. Also, the Activity in assay [2] and in assay [6] was 100% throughout.
Regarding `CC(=O)O[C@H]1C(=O)[C@@]2(C)[C@H]([C@H](OC(=O)c3ccccc3)[C@]3(O)C[C@H](OC(=O)[C@H](OC(=O)CCC(=O)O[C@@H]4C[C@]5(C)[C@@H](O)CC[C@H]5[C@@H]5CCc6cc(O)ccc6[C@H]54)[C@@H](NC(=O)c4ccccc4)c4ccccc4)C(C)=C1C3(C)C)[C@]1(OC(C)=O)CO[C@@H]1C[C@@H]2O`, the Activity in assay [2] and in assay [6] was 60% in each case.
In the case of `CC(=O)O[C@H]1C(=O)[C@@]2(C)[C@H]([C@H](OC(=O)c3ccccc3)[C@]3(O)C[C@H](OC(=O)[C@H](OC(=O)/C=C/C[C@@H]4C[C@H]5[C@@H]6CCc7cc(O)ccc7[C@H]6CC[C@]5(C)[C@H]4O)[C@@H](NC(=O)c4ccccc4)c4ccccc4)C(C)=C1C3(C)C)[C@]1(OC(C)=O)CO[C@@H]1C[C@@H]2O`, the figures for the Activity in assay [2] and in [6] were 45% and 55%, respectively.
Take `CC(=O)O[C@H]1C(=O)[C@]2(C)[C@@H](OC(=O)CCC(=O)O[C@@H]3C[C@]4(C)[C@@H](O)CC[C@H]4[C@@H]4CCc5cc(O)ccc5[C@H]43)C[C@H]3OC[C@@]3(OC(C)=O)[C@H]2[C@H](OC(=O)c2ccccc2)[C@]2(O)C[C@H](OC(=O)[C@H](O)[C@@H](NC(=O)c3ccccc3)c3ccccc3)C(C)=C1C2(C)C`: the Activity worked out at 70% in assay [7], 100% in assay [2], 100% in assay [6] and 20% in assay [9]. Besides, the “inhibition (INH)” value in [8] is reported as 85%. In addition, the IC50 worked out at 0.32 µM in assay [1], 0.78 µM in assay [3], 2.9 µM in [4] and 0.557 µM in assay [5].
Turning to `CC(=O)O[C@H]1C(=O)[C@@]2(C)[C@H]([C@H](OC(=O)c3ccccc3)[C@]3(O)C[C@H](OC(=O)[C@H](O)[C@@H](NC(=O)c4ccccc4)c4ccccc4)C(C)=C1C3(C)C)[C@]1(OC(C)=O)CO[C@@H]1C[C@@H]2O` [PACLITAXEL], the Activity in assay [7] was found to be 70%; in assay [9] it was 20%. Moreover, the “inhibition (INH)” value in assay [8] worked out at 85%.
Consider `CC(=O)O[C@@]12CO[C@@H]1C[C@H](O)[C@@]1(C)C(=O)[C@H](OC(=O)CCC(=O)O[C@@H]3C[C@]4(C)[C@@H](O)CC[C@H]4[C@@H]4CCc5cc(O)ccc5[C@H]43)C3=C(C)[C@@H](OC(=O)[C@H](O)[C@@H](NC(=O)c4ccccc4)c4ccccc4)C[C@@](O)([C@@H](OC(=O)c4ccccc4)[C@H]21)C3(C)C`, for which the IC50 in assay [1] is 0.068 µM; in assay [3], 0.304 µM; in [4] it was 1.9 µM; in [5] it was 0.103 µM. Moreover, the Activity in assay [2] and in assay [6] was 100% in each case.
